Assay results from US20120295923A1, “Aminocyclohexanes and Aminotetrahydropyrans and Related Compounds As Gamma-Secretase Modulators” (PFIZER INC., priority 2010, published 2012).
Where a name gives a salt, the structure may show the parent alone. Read-outs that look alike come from different tables or passages of the source.

Tested on: γ-secretase; production of amyloid beta protein Aβ(1-42)
Assay: Cell-Based γ-Secretase Assay with ELISA Readout
Settings: human WT-APP overexpressing CHO cells
Description: The ability of compounds to modulate production of amyloid beta protein A6(1-42) was determined using human WT-APP overexpressing CHO cells. Cells were plated at 22,000 cells/100 μL well in 96 well tissue culture treated, clear plates (Falcon) in DMEM/F12 based medium and incubated for 24 hours at 37° C. Compounds for testing were diluted in 100% DMSO to achieve an eleven points, half log, dose response for IC50 determinations. Compounds were added in fresh medium to achieve 1% final DMSO. Appropriate vehicle and inhibitor controls were added to obtain maximum and minimum inhibition values for the assay before the plates were incubated for about 24 hours at 37° C.
Coating of ELISA assay plates was initiated by addition of 50 μL/well of an in-house Aβ(1-42) specific antibody at (4 μg/mL) in 0.1 M NaHCO3 (pH 9.0) into black 384-well Maxisorp® plates (Nunc) and incubated overnight at 4° C. The capture antibody was then aspirated from the ELISA assay plates and 100 μL/well of Blocking Buffer (Dulbecco's PBS, 1.5% BSA (Sigma A7030)) added. Ambient temperature incubation was allowed to proceed for a minimum of two hours before washing 2×100 μL with Wash Buffer (Dulbecco's PBS, 0.05% Tween 20). Assay Buffer (Dulbecco's PBS, 1.0% BSA (Sigma A7030), 0.05% Tween 20) 20 μL/well was then added.
After incubation overnight at 37° C., 5% CO2, 40 μL (in duplicate) of experimental conditioned media were transferred into wells of the blocked ELISA plates containing the capture antibody, followed by overnight incubation at 4° C.
After overnight incubation of the ELISA assay plates at 4° C., unbound Aβ peptides were removed thorough (4×100 μL) washes with Wash Buffer. Europium (Eu) labeled (custom labeled, Perkin Elmer) Aβ(1-16) 6e10 Monoclonal Antibody (Covance #SIG-39320 was added, (50 μL/well Eu-6e10 @ 1:5000, 20 uM EDTA) in Assay Buffer. Incubation at ambient temperature for a minimum of 2 hours was followed by (4×100 μL) washes with Wash Buffer, before 50 μL/well of Delfia Enhancement Solution (PerkinElmer) was added. Following a one hour ambient temperature incubation, the plates were read on an EnVision plate reader (PerkinElmer) using standard DELFIA TRF settings. Data analysis including inhibitory IC50 determination was performed using nonlinear regression fit analysis (in-house software) and the appropriate plate mean values for the maximum and minimum inhibition controls.

[1] = footnote 8: single determination, read-out: Aβ 42B IC50 (nM) (Geometric Mean of 2-8 Determinations)
[2] = geometric mean of 2-4 determinations unless otherwise indicated (footnote 10: 6-8; footnote 14: single determination), read-out: Aβ 42B IC50

Row | SMILES | IC50 [2] [nM] | other results
1 | CC(C)CCN(CC1(F)CCCCC1)[C@@H]1CC[C@@H](CC(=O)O)C[C@H]1c1ccc(C(F)(F)F)cc1 [Example 14, {(1R,3S,4R)-4-{[(1-fluorocyclo-hexyl)methyl](3-methylbutyl)amino}-3-[4-(trifluoromethyl)phenyl]cyclohexyl} acetic acid] |  | IC50 [1]: 103 nM
2 | CC(C)(C#N)CCN(CC1CCCC1)[C@@H]1CC[C@@H](CC(=O)O)C[C@H]1c1ccc(C(F)(F)F)cc1 [Example 37, {(1R,3S,4R)-4-[(3-cyano-3-methylbutyl)(cyclopentylmethyl)amino]-3-[4-(trifluoromethyl)phenyl]cyclohexyl}acetic acid, trifluoroacetate salt] | 2170 | 
3 | O=C(O)C[C@@H]1CC[C@@H](N(CCC(F)(F)F)CC2CCCC2)[C@H](c2ccc(C(F)(F)F)cc2)C1 [Example 45, {(1R,3S,4R)-4-[(cyclopentylmethyl)(3,3,3-trifluoropropyl)amino]-3-[4-(trifluoromethyl)phenyl]cyclohexyl}acetic acid, trifluoroacetate salt] | 484 | 
4 | CC(C)CCN(CCC1CCCCC1)[C@@H]1CC[C@@H](CC(=O)O)C[C@H]1c1ccc(C(F)(F)F)cc1 [Example 32, {(1R,3S,4R)-4-[(2-cyclohexylethyl)(3-methylbutyl)amino]-3-[4-(trifluoromethyl)phenyl]cyclohexyl}acetic acid, trifluoroacetate salt] | 598 | 
5 | O=C(O)C[C@@H]1CC[C@@H](N(CCC2CCCCC2)CC2CCCC2)[C@H](c2ccc(C(F)(F)F)cc2)C1 [Example 40, {(1R,3S,4R)-4-[(2-cyclohexylethyl)(cyclopentyl-methyl)amino]-3-[4-(trifluoromethyl)phenyl]cyclohexyl}acetic acid, trifluoroacetate salt] | 621 | 
6 | O=C(O)C[C@@H]1CC[C@@H](N(CC2CCCC2)CC2CCCC2)[C@H](c2cccc(Cl)c2)O1 [Example 47, [(2S,5R,6S)-5-[bis(cyclopentylmethyl)amino]-6-(3-chlorophenyl)tetrahydro-2H-pyran-2-yl]acetic acid, ammonium salt] | 1840 | 
7 | CC(C)CCN(CCC(F)(F)F)[C@@H]1CC[C@@H](CC(=O)O)C[C@H]1c1ccc(C(F)(F)F)nc1 [Example 12, {(1R,3S,4R)-4-[(3-methylbutyl) (3,3,3-trifluoro-propyl)amino]-3-[6-(trifluoromethyl)pyridin-3-yl]cyclohexyl}acetic acid] |  | IC50 [1]: 1370 nM
8 | O=C(O)C[C@@H]1CC[C@@H](N(CC2CCCC2)CC2(F)CCCCC2)[C@H](c2ccc(C(F)(F)F)cc2)C1 [Example 39, {(1R,3S,4R)-4-{(cyclopentylmethyl)[(1-fluorocyclohexyl)methyl]amino}-3-[4-(trifluoromethyl)phenyl]cyclohexyl}acetic acid, ammonium salt] | 109 | 
9 | O=C(O)C[C@@H]1CC[C@@H](N(CC2CCCC2)CC2CCCC2)[C@H](c2ccc(C(F)(F)F)nc2)O1 [Example 19, {(2S,5R,6S)-5-[bis(cyclopentyl-methyl)amino]-6-[6-(trifluoromethyl)pyridin-3-yl]tetrahydro-2H-pyran-2-yl}acetic acid] |  | IC50 [1]: 837 nM
10 | O=C(O)C[C@@H]1CC[C@@H](N2CC3(CCCC3)CC3(CCCC3)C2)[C@H](c2ccc(C(F)(F)F)cc2)C1 [Example 29, {(1R,3S,4R)-4-(13-azadispiro [4.1.4.3]tetradec-13-yl)-3-[4-(trifluoromethyl)phenyl]cyclohexyl} acetic acid] |  | IC50 [1]: 193 nM
11 | O=C(O)C[C@@H]1CC[C@@H](N(Cc2cncnc2)CC2CCCC2)[C@H](c2ccc(C(F)(F)F)cc2)C1 [Example 38, {(1R,3S,4R)-4-[(cyclopentylmethyl)(pyrimidin-5-ylmethyl)amino]-3-[4-(trifluoromethyl)phenyl]cyclohexyl}acetic acid, trifluoroacetate salt] | 5220 | 
12 | CC(C)CCN(CCC(C)C)[C@@H]1CC[C@@H]([C@@H](C)C(=O)O)C[C@H]1c1ccc(C(F)(F)F)cc1 (single isomer, unassigned) [Example 7] |  | IC50 (geometric mean of 2 determinations unless otherwise indicated (footnote 2: 6-14 determinations), read-out: Aβ 42B IC50): 1750 nM
13 | O=C(O)C[C@H]1CC[C@@H](N(CC2CCCC2)CC2CCCC2)[C@H](c2ccc(C(F)(F)F)cc2)O1 [Example 22, {(2R,5R,6S)-5-[bis(cyclopentyl-methyl)amino]-6-[4-(trifluoromethyl)phenyl]tetrahydro-2H-pyran-2-yl} acetic acid] |  | IC50 [1]: 6390 nM

The next lines start with results.

Row | IC50 [2] [nM] | SMILES | other results
14 | 509 | O=C(O)C[C@@H]1CC[C@@H](N(Cc2ccc3nonc3c2)CC2(F)CCCCC2)[C@H](c2ccc(C(F)(F)F)cc2)C1 [Example 65, {(1R,3S,4R)-4-{(2,1,3-benzoxadiazol-5-ylmethyl)[(1-fluorocyclohexyl)methyl]amino}-3-[4-(trifluoromethyl)phenyl]cyclohexyl}acetic acid, trifluoroacetate salt] | 
15 | 959 | Cc1nc(CN(CC2CCCC2)[C@@H]2CC[C@@H](CC(=O)O)C[C@H]2c2ccc(C(F)(F)F)cc2)co1 [Example 53, {(1R,3S,4R)-4-{(cyclopentylmethyl)[(2-methyl-1,3-oxazol-4-yl)methyl]amino}-3-[4-(trifluoromethyl)phenyl]cyclohexyl}acetic acid, ammonium salt] | 
16 | 349 | CCCc1nscc1CN(CC(C)C)[C@@H]1CC[C@@H](CC(=O)O)C[C@H]1c1ccc(C(F)(F)F)cc1 [Example 59, {(1R,3S,4R)-4-{isobutyl[(3-propylisothiazol-4-yl)methyl]amino}-3-[4-(trifluoromethyl)phenyl]cyclohexyl}acetic acid, trifluoroacetate salt] | 
17 | 607 | O=C(O)C[C@@H]1CC[C@@H](N(Cc2ccc3c(c2)CCO3)CC2(F)CCCCC2)[C@H](c2ccc(C(F)(F)F)cc2)C1 [Example 61, {(1R,3S,4R)-4-{(2,3-dihydro-1-benzofuran-5-ylmethyl)[(1-fluorocyclohexyl)methyl]amino}-3-[4-(trifluoromethyl)phenyl]cyclohexyl}acetic acid, trifluoroacetate salt] | 
18 | 309 | COc1cccc(F)c1CN(CC1(F)CCCCC1)[C@@H]1CC[C@@H](CC(=O)O)C[C@H]1c1ccc(C(F)(F)F)cc1 [Example 58, {(1R,3S,4R)-4-{[(1-fluorocyclohexyl)methyl](2-fluoro-6-methoxybenzyl)amino}-3-[4-(trifluoromethyl)phenyl]cyclohexyl}acetic acid, trifluoroacetate salt] | 
19 | 544 | CC(C)C[C@H](C)N(CC1CCCC1)[C@@H]1CC[C@@H](CC(=O)O)C[C@H]1c1ccc(C(F)(F)F)cc1 (single isomer, unassigned) [Example 56] | 
20 | 171 | CCOc1ccc(CN(CC(C)C)[C@@H]2CC[C@@H](CC(=O)O)C[C@H]2c2ccc(C(F)(F)F)cc2)cc1 [Example 57, {(1R,3S,4R)-4-[(4-ethoxybenzyl)(isobutyl)amino]-3-[4-(trifluoromethyl)phenyl]cyclohexyl}acetic acid, trifluoroacetate salt] | 
21 | 268 | CC(C)CN(Cc1ccc(C(C)(C)C)cc1)[C@@H]1CC[C@@H](CC(=O)O)C[C@H]1c1ccc(C(F)(F)F)cc1 [Example 66, {(1R,3S,4R)-4-[(4-tert-butylbenzyl)(isobutyl)amino]-3-[4-(trifluoromethyl)phenyl]cyclohexyl}acetic acid, trifluoroacetate salt] | 
22 | 154 | CC(C)CN(CC1=CCCCC1)[C@@H]1CC[C@@H](CC(=O)O)C[C@H]1c1ccc(C(F)(F)F)cc1 [Example 60, {(1R,3S,4R)-4-[(cyclohex-1-en-1-ylmethyl)(isobutyl)amino]-3-[4-(trifluoromethyl)phenyl]cyclohexyl}acetic acid, trifluoroacetate salt] | 
23 | 441 | O=C(O)C[C@@H]1CC[C@@H](N(CCC(F)(F)F)CC2CCCC2)[C@H](c2ccc(Cl)cc2)C1 [Example 48, {(1R,3S,4R)-3-(4-chlorophenyl)-4-[(cyclopentylmethyl)(3,3,3-trifluoropropyl)amino]cyclohexyl}acetic acid, trifluoroacetate salt] | 
24 | 190 | CC(C)CN(CC1(F)CCCCC1)[C@@H]1CC[C@@H](CC(=O)O)C[C@H]1c1ccc(C(F)(F)F)cc1 [Example 52, {(1R,3S,4R)-4-{[(1-fluorocyclohexyl)methyl] (isobutyl)amino}-3-[4-(trifluoromethyl)phenyl]cyclohexyl}acetic acid, trifluoroacetate salt] | 
